Reference: ChEMBL document CHEMBL1158246, “New cytotoxic briaran diterpenes from the Formosan gorgonian Briareum sp” (1996)
≈ marks a conversion by molar mass, not a printed value.

Legend:
Type in all cases: functional
Settings in all cases: read-out: ED50 (the source's name)
KB = assay: Cytotoxicity against human KB cells
HT-29 = assay: Cytotoxicity against human HT29 cells
A549 = assay: Cytotoxicity against human A549 cells
P388 = assay: Cytotoxicity against mouse P388 cells

SMILES	EC50 (KB)	EC50 (HT-29)	EC50 (A549)	EC50 (P388)
CC(=O)O[C@H]1C[C@@H]2O[C@]2(C)[C@@H]2[C@@H](OC(C)=O)[C@]34O[C@]3(C)C(=O)O[C@H]4/C=C(/C)CC[C@@H](OC(C)=O)[C@@]12C	24.4 µg/mL (≈ 48.3 µM)	10.1 µg/mL (≈ 19.9 µM)	17.4 µg/mL (≈ 34.3 µM)	1.59 µg/mL (≈ 3.14 µM)
CC(=O)O[C@H]1C[C@@H]2O[C@]2(C)[C@@H]2[C@@H](O)[C@]34O[C@]3(C)C(=O)O[C@H]4/C=C(/C)CC[C@@H](OC(C)=O)[C@@]12C	> 50 µg/mL	6.96 µg/mL (≈ 15 µM)	> 50 µg/mL	0.61 µg/mL (≈ 1.31 µM)
CC(=O)O[C@H]1CC=C(C)[C@@H]2[C@@H](O)[C@]34O[C@]3(C)C(=O)O[C@H]4/C=C(/C)CC[C@@H](OC(C)=O)[C@@]12C	0.27 µg/mL (≈ 0.602 µM)	8.27 µg/mL (≈ 18.4 µM)	10.3 µg/mL (≈ 23.1 µM)	0.28 µg/mL (≈ 0.624 µM)
CC(=O)O[C@H]1CC=C(C)[C@@H]2[C@@H](OC(C)=O)[C@]34O[C@]3(C)C(=O)O[C@H]4/C=C(/C)CC[C@@H](OC(C)=O)[C@@]12C [BRIAREOLIDE H]	> 50 µg/mL	0.29 µg/mL (≈ 0.591 µM)	> 50 µg/mL	3.1 µg/mL (≈ 6.32 µM)
